Test systems include A498 renal; A549 NSCLC; CAKI-1 renal; HOP-92 NSCLC; NCI-H23 lung; OVCAR-5 ovarian; SK-MEL-5 melanoma; SN12C renal; TK-10 renal; UACC-62 melanoma.
Common to all, as to assay: NCI tumour cell line growth inhibition, 48 h

SMILES strings stand for the structures.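 These data come from cells grown in 96-well plates and exposed to compound for 48 hours at five concentrations. GI50: concentration for 50% inhibition of growth. The concentration for full growth arrest is given as TGI.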

This note sets out measurements from PubChem BioAssay (NCI).

For the compound `S=c1nc(-c2cccnc2)[nH][nH]1`, the TGI in the assay with A498 renal was above 100 µM; with A549 NSCLC it was above 100 µM; in the assay with CAKI-1 renal, above 1 µM; with HOP-92 NSCLC, above 100 µM; in the assay with NCI-H23 lung it was above 100 µM; with OVCAR-5 ovarian, above 100 µM. Also, the TGI with SK-MEL-5 melanoma, in the assay with SN12C renal and with TK-10 renal was above 100 µM throughout.

Consider `CC(=O)Nc1ccc(S(=O)(=O)NNC(=O)c2cccnc2Nc2ccc(Cl)cc2)cc1`, for which the GI50 with A498 renal is 18.4 µM; in the assay on A549 NSCLC it was 32.4 µM; with CAKI-1 renal, 9.18 µM; in the assay on HOP-92 NSCLC, above 100 µM; in the assay with SK-MEL-5 melanoma, 5.68 µM; in the assay on SN12C renal, 59.3 µM. In addition, the GI50 in the assay on TK-10 renal was 25.3 µM; in the assay with UACC-62 melanoma it was 8.85 µM. Also, the TGI in the assay on A498 renal is 76.1 µM; in the assay with A549 NSCLC, above 100 µM; in the assay with CAKI-1 renal, above 100 µM; in the assay with HOP-92 NSCLC, above 100 µM; with SK-MEL-5 melanoma, above 100 µM; in the assay with SN12C renal, above 100 µM. In addition, the TGI in the assay with TK-10 renal and with UACC-62 melanoma was above 100 µM each time.

In the case of `CCOc1ccccc1NC(=O)CCc1nc(=S)[nH][nH]1`, the TGI in the assay on A549 NSCLC, in the assay on CAKI-1 renal, in the assay with HOP-92 NSCLC, with NCI-H23 lung, in the assay with OVCAR-5 ovarian and with SK-MEL-5 melanoma was above 100 µM throughout. For the same compound, the TGI in the assay on SN12C renal, in the assay with TK-10 renal and in the assay on UACC-62 melanoma was above 100 µM each time.

As for `CCOC(=O)C(/C=N\C(=S)Nc1ccc(OCC)cc1)=C(/O)c1ccccc1`, the TGI was 88.4 µM in the assay with A498 renal; above 100 µM in the assay on A549 NSCLC; above 100 µM in the assay on CAKI-1 renal; 67.8 µM with HOP-92 NSCLC; above 100 µM in the assay on NCI-H23 lung; above 100 µM with OVCAR-5 ovarian. The TGI with SK-MEL-5 melanoma, with SN12C renal and in the assay with UACC-62 melanoma was above 100 µM in each case.

Consider `Cc1cc2c(=O)c3ccccc3[nH]c2c(C(=O)O)c1C`, for which the TGI with A498 renal, in the assay with A549 NSCLC, in the assay with CAKI-1 renal, with NCI-H23 lung, in the assay with SN12C renal and in the assay with UACC-62 melanoma was above 100 µM each time.

Consider `CN=C1SC(=Nc2ccc(N(C)C)cc2)N1C`, for which the TGI in the assay on A498 renal is 91.9 µM; with A549 NSCLC, above 100 µM; in the assay with HOP-92 NSCLC it was 53.5 µM; in the assay on NCI-H23 lung, above 100 µM; in the assay with OVCAR-5 ovarian, above 100 µM; with SK-MEL-5 melanoma, above 100 µM. Also, the TGI in the assay on SN12C renal, in the assay on TK-10 renal and in the assay on UACC-62 melanoma was above 100 µM throughout.

As for `C1=CC=C2NCCOCCNC3=CC=CC=CC3=NCCOCCN=C2C=C1`, the TGI in the assay on A498 renal, in the assay on A549 NSCLC, in the assay on CAKI-1 renal, in the assay on NCI-H23 lung, in the assay with OVCAR-5 ovarian and in the assay with SK-MEL-5 melanoma was above 100 µM each time. Besides, the TGI with SN12C renal, in the assay on TK-10 renal and with UACC-62 melanoma was above 100 µM each time.

As to `COc1ccc(/C=C2\C(=O)N(C(=O)Cc3ccccc3)N=C2C)cc1OC`, the TGI in the assay on A549 NSCLC, in the assay on CAKI-1 renal, with NCI-H23 lung, with OVCAR-5 ovarian, in the assay with SN12C renal and in the assay with TK-10 renal was above 100 µM each time.

Consider `CC(=O)O[C@@H]1C2C(=O)OC(=O)C2C2CCC[C@]23O[C@H]13` (some centres undefined), for which the TGI in the assay with A498 renal, in the assay with A549 NSCLC, in the assay on CAKI-1 renal, in the assay with SK-MEL-5 melanoma, in the assay with SN12C renal and with TK-10 renal was above 100 µM throughout. This compound also came in with a TGI in the assay with UACC-62 melanoma above 100 µM.

Take `CCC(c1cccc(O)c1)C(CC)c1cccc(O)c1` (centres undefined): the GI50 was 4.35 µM with A498 renal; 8.58 µM in the assay with A549 NSCLC; 11.9 µM with CAKI-1 renal; 4.08 µM in the assay with NCI-H23 lung; 12 µM with OVCAR-5 ovarian; 1.41 µM in the assay with SK-MEL-5 melanoma. The GI50 with SN12C renal was 5.46 µM; in the assay on TK-10 renal, 2.93 µM; in the assay on UACC-62 melanoma, 3.67 µM. Also, the TGI in the assay on A498 renal was 16.7 µM; with A549 NSCLC, 24.2 µM; in the assay on CAKI-1 renal, 33 µM; in the assay with NCI-H23 lung, 16.6 µM; in the assay with OVCAR-5 ovarian, 24.3 µM; in the assay with SK-MEL-5 melanoma, 3.91 µM. In addition, the TGI with SN12C renal worked out at 19.4 µM; in the assay on TK-10 renal, 20.4 µM; in the assay on UACC-62 melanoma, 16 µM.

Take `O=C1Nc2cccc3cc(NCC(O)CCl)cc1c23` (centres undefined): the TGI with A549 NSCLC, in the assay on CAKI-1 renal, in the assay on HOP-92 NSCLC, in the assay with NCI-H23 lung, in the assay with OVCAR-5 ovarian and in the assay with SK-MEL-5 melanoma was above 100 µM throughout. In addition, the TGI in the assay with SN12C renal, with TK-10 renal and with UACC-62 melanoma was above 100 µM each time.

As to `CCN1CSC(=S)N(CC)C1`, the TGI in the assay on A498 renal, in the assay with A549 NSCLC, in the assay with HOP-92 NSCLC, in the assay with NCI-H23 lung, in the assay on OVCAR-5 ovarian and with SK-MEL-5 melanoma was above 100 µM throughout. The TGI in the assay with SN12C renal, in the assay on TK-10 renal and with UACC-62 melanoma was above 100 µM throughout.

With `CCOC(=O)[C@H]1Nc2ccc(OC)cc2C2c3ccccc3CC21` (some centres undefined), the TGI with A498 renal, in the assay on A549 NSCLC, in the assay on CAKI-1 renal, in the assay on NCI-H23 lung, with OVCAR-5 ovarian and in the assay on SK-MEL-5 melanoma was above 100 µM throughout. Moreover, the TGI in the assay on SN12C renal, with TK-10 renal and with UACC-62 melanoma was above 100 µM each time.

For `COC(=O)C1=C(CS(=O)c2ccccc2[N+](=O)[O-])ON(C)C1c1ccccc1` (centres undefined), the TGI in the assay with A498 renal, in the assay on A549 NSCLC, with CAKI-1 renal, in the assay on NCI-H23 lung, in the assay on OVCAR-5 ovarian and with SK-MEL-5 melanoma was above 100 µM throughout. In addition, the TGI with SN12C renal is 42.6 µM; in the assay with TK-10 renal it was above 100 µM; in the assay with UACC-62 melanoma, above 100 µM.
